Experimental data as given in PubChem BioAssay AID2060506 (Molecular Pharmacology Branch, DTP, NCI, 2025).

System: 598228-144-R-J1-PDC complex spheroid viability
Assay: Anticancer human tumor 598228-144-R-J1-PDC patient-derived serous endometrial adenocarcinoma cell line growth inhibition [GQUAD]
Conditions: for IC50: curve of first compound; for viability, T/C: stronger effect = lower value
Outline: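 Multi-cell-type spheroids of tumor cells with HUVEC and mesenchymal stem cells, treated with drug combinations. Concentrations descend in half-log steps from near clinical Cmax, or from 10 microM where Cmax is unknown; viability read-out.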

[1] = second compound 0.0316 µM, first compound 0.0316 µM
[2] = second compound 0.0316 µM, first compound 0.1 µM
[3] = second compound 0.0316 µM, first compound 0.316 µM
[4] = second compound 0.0316 µM, first compound 1 µM
[5] = second compound 0.0316 µM, first compound 3.16 µM
[6] = second compound 0.0316 µM, first compound 10 µM
[7] = second compound 0.1 µM, first compound 0.0316 µM
[8] = second compound 0.1 µM, first compound 0.1 µM
[9] = second compound 0.1 µM, first compound 0.316 µM
[10] = second compound 0.1 µM, first compound 1 µM
[11] = second compound 0.1 µM, first compound 3.16 µM
[12] = second compound 0.1 µM, first compound 10 µM
[13] = second compound 0.316 µM, first compound 0.0316 µM
[14] = second compound 0.316 µM, first compound 0.1 µM
[15] = second compound 0.316 µM, first compound 0.316 µM
[16] = second compound 0.316 µM, first compound 1 µM
[17] = second compound 0.316 µM, first compound 3.16 µM
[18] = second compound 0.316 µM, first compound 10 µM
[19] = second compound 1 µM, first compound 0.0316 µM
[20] = second compound 1 µM, first compound 0.1 µM
[21] = second compound 1 µM, first compound 0.316 µM
[22] = second compound 1 µM, first compound 1 µM
[23] = second compound 1 µM, first compound 3.16 µM
[24] = second compound 1 µM, first compound 10 µM
[25] = second compound 3.16 µM, first compound 0.0316 µM
[26] = second compound 3.16 µM, first compound 0.1 µM
[27] = second compound 3.16 µM, first compound 0.316 µM
[28] = second compound 3.16 µM, first compound 1 µM
[29] = second compound 3.16 µM, first compound 3.16 µM
[30] = second compound 3.16 µM, first compound 10 µM
[31] = second compound 10 µM, first compound 0.0316 µM
[32] = second compound 10 µM, first compound 0.1 µM
[33] = second compound 10 µM, first compound 0.316 µM
[34] = second compound 10 µM, first compound 1 µM
[35] = second compound 10 µM, first compound 3.16 µM
[36] = second compound 10 µM, first compound 10 µM
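Also: spheroids exposed to the agents for one week before reading.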
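For viability, T/C in this document: percent of vehicle DMSO control viability so 100% = untreated growth.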

Compound: C#Cc1c(F)ccc2cc(O)cc(-c3ncc4c(N5CC6CCC(C5)N6)nc(OCC56CCCN5CC(F)C6)nc4c3F)c12 (stereo unspecified) + Cc1cnc(CNC(=O)c2c(=O)c3ccc(N4CCCN(C)CC4)nc3n3c2sc2ccccc23)cn1
- IC50 (second compound 0.0316 µM): > 10 µM
- IC50 (second compound 0.1 µM): > 10 µM
- IC50 (second compound 0.316 µM): > 10 µM
- IC50 (second compound 1 µM): 8.91 µM
- IC50 (second compound 3.16 µM): 0.0316 µM
- IC50 (second compound 10 µM): < 0.0316 µM
- viability, T/C [1]: 99.8%
- viability, T/C [2]: 88.6%
- viability, T/C [3]: 85.6%
- viability, T/C [4]: 83.2%
- viability, T/C [5]: 101%
- viability, T/C [6]: 81.7%
- viability, T/C [7]: 64.3%
- viability, T/C [8]: 77.7%
- viability, T/C [9]: 71.6%
- viability, T/C [10]: 63.7%
- viability, T/C [11]: 69.7%
- viability, T/C [12]: 68.7%
- viability, T/C [13]: 75%
- viability, T/C [14]: 58.8%
- viability, T/C [15]: 62.7%
- viability, T/C [16]: 55.4%
- viability, T/C [17]: 69.9%
- viability, T/C [18]: 53.1%
- viability, T/C [19]: 57%
- viability, T/C [20]: 53.4%
- viability, T/C [21]: 54%
- viability, T/C [22]: 58.9%
- viability, T/C [23]: 52.4%
- viability, T/C [24]: 46.1%
- viability, T/C [25]: 46.5%
- viability, T/C [26]: 50.9%
- viability, T/C [27]: 46.8%
- viability, T/C [28]: 40.5%
- viability, T/C [29]: 52.2%
- viability, T/C [30]: 27.9%
- viability, T/C [31]: 25.5%
- viability, T/C [32]: 30.3%
- viability, T/C [33]: 20.4%
- viability, T/C [34]: 24.2%
- viability, T/C [35]: 7.19%
- viability, T/C [36]: 0.48%

Compound: CC(C)n1c(=O)n(C)c2cnc3cc(F)c(-c4ccc(OCCCN5CCCCC5)nc4)cc3c21 + CN(C)c1ccc(Nc2c3ccc(NC(=O)CCN4CCCC4)cc3nc3cc(NC(=O)CCN4CCCC4)ccc23)cc1
- IC50 (second compound 0.0316 µM): 9.92 µM
- IC50 (second compound 0.1 µM): > 10 µM
- IC50 (second compound 0.316 µM): > 10 µM
- IC50 (second compound 1 µM): 8.29 µM
- IC50 (second compound 3.16 µM): 6.87 µM
- IC50 (second compound 10 µM): 0.217 µM
- viability, T/C [1]: 112%
- viability, T/C [2]: 79.6%
- viability, T/C [3]: 102%
- viability, T/C [4]: 93%
- viability, T/C [5]: 78.1%
- viability, T/C [6]: 49.7%
- viability, T/C [7]: 117%
- viability, T/C [8]: 82.9%
- viability, T/C [9]: 94%
- viability, T/C [10]: 92.2%
- viability, T/C [11]: 86.8%
- viability, T/C [12]: 57.2%
- viability, T/C [13]: 110%
- viability, T/C [14]: 102%
- viability, T/C [15]: 98.9%
- viability, T/C [16]: 89.3%
- viability, T/C [17]: 89.5%
- viability, T/C [18]: 60%
- viability, T/C [19]: 75.7%
- viability, T/C [20]: 87.4%
- viability, T/C [21]: 99.2%
- viability, T/C [22]: 87.7%
- viability, T/C [23]: 83.1%
- viability, T/C [24]: 43.5%
- viability, T/C [25]: 98.2%
- viability, T/C [26]: 78.3%
- viability, T/C [27]: 103%
- viability, T/C [28]: 80.2%
- viability, T/C [29]: 83.3%
- viability, T/C [30]: 34.7%
- viability, T/C [31]: 70.8%
- viability, T/C [32]: 60.3%
- viability, T/C [33]: 44.7%
- viability, T/C [34]: 29.6%
- viability, T/C [35]: 15.8%
- viability, T/C [36]: 5.05%

Compound: COc1cc(C2c3cc4c(cc3C(OC3OC5COC(C)OC5C(O)C3O)C3COC(=O)C23)OCO4)cc(OC)c1O (stereo unspecified) + Cc1cnc(CNC(=O)c2c(=O)c3ccc(N4CCCN(C)CC4)nc3n3c2sc2ccccc23)cn1
- IC50 (second compound 0.0316 µM): 8.68 µM
- IC50 (second compound 0.1 µM): > 10 µM
- IC50 (second compound 0.316 µM): > 10 µM
- IC50 (second compound 1 µM): > 10 µM
- IC50 (second compound 3.16 µM): 3.43 µM
- IC50 (second compound 10 µM): 0.765 µM
- viability, T/C [1]: 79.7%
- viability, T/C [2]: 85.8%
- viability, T/C [3]: 88.4%
- viability, T/C [4]: 58.6%
- viability, T/C [5]: 79.8%
- viability, T/C [6]: 46.1%
- viability, T/C [7]: 89.4%
- viability, T/C [8]: 60.1%
- viability, T/C [9]: 54.8%
- viability, T/C [10]: 66.4%
- viability, T/C [11]: 55.1%
- viability, T/C [12]: 44.4%
- viability, T/C [13]: 87.8%
- viability, T/C [14]: 62%
- viability, T/C [15]: 64.2%
- viability, T/C [16]: 72.1%
- viability, T/C [17]: 67%
- viability, T/C [18]: 47.8%
- viability, T/C [19]: 64.2%
- viability, T/C [20]: 69.9%
- viability, T/C [21]: 74.7%
- viability, T/C [22]: 72%
- viability, T/C [23]: 71.9%
- viability, T/C [24]: 46.9%
- viability, T/C [25]: 64.6%
- viability, T/C [26]: 70.7%
- viability, T/C [27]: 73.3%
- viability, T/C [28]: 61.7%
- viability, T/C [29]: 51.8%
- viability, T/C [30]: 35%
- viability, T/C [31]: 57.6%
- viability, T/C [32]: 45.2%
- viability, T/C [33]: 52.1%
- viability, T/C [34]: 47.5%
- viability, T/C [35]: 43.2%
- viability, T/C [36]: 9.83%
